{
  "source": "patent EP0622356A1",
  "about": "“Indoloylguanidine derivatives as inhibitors of sodium-hydrogen exchange” (SUMITOMO PHARMACEUTICALS COMPANY, LIMITED, priority 1993, dated 1994)",
  "key": {"Na⁺/H⁺ exchanger [1]": {"biological_target": "T1, Na⁺/H⁺ exchanger (Rattus norvegicus, UniProt P26431)", "T1 construct": "using the vascular smooth muscle cells isolated from the rat thoracic aorta; endogenous in cells; host or cells: primary vascular smooth muscle cells isolated from rat thoracic aorta", "T1 sequence (P26431 whole entry)": "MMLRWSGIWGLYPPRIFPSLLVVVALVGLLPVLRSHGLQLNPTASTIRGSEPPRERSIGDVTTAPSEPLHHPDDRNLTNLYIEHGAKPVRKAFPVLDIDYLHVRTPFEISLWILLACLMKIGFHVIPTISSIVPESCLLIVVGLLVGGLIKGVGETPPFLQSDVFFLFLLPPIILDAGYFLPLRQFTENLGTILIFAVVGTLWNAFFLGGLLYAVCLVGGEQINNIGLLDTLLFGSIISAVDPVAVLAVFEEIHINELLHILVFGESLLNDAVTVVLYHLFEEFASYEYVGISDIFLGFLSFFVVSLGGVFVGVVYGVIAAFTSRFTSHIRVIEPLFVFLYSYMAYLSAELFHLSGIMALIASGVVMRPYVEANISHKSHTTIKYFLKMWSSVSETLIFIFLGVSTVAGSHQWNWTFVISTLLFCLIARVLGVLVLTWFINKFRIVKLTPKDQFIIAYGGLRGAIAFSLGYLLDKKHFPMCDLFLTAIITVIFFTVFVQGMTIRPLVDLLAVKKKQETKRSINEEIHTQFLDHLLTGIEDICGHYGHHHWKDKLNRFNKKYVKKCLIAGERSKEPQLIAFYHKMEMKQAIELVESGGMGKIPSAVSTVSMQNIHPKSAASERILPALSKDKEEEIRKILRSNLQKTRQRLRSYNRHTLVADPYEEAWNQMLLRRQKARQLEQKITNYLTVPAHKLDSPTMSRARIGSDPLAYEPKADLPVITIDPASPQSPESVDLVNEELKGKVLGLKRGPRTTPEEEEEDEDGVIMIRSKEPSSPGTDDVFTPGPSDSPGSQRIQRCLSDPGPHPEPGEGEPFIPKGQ", "test": "Inhibition of Na⁺/H⁺ exchanger activity in vitro (change in intracellular pH during acid loading)", "assay_type": "cell-based", "procedure": "That is, inhibition of the Na⁺/H⁺ exchanger activity was evaluated by the change in intracellular pH during acid loading, using the vascular smooth muscle cells isolated from the rat thoracic aorta."}, "Na⁺/H⁺ exchanger [2]": {"biological_target": "T1, Na⁺/H⁺ exchanger", "test": "Inhibition of Na⁺/H⁺ exchanger activity in vitro (change in cell viability during acid loading)", "assay_type": "cell-based", "settings": "minimum effective concentration, vascular smooth muscle cells isolated from the rat thoracic aorta", "procedure": "The experiment was performed by modifying the method of Mungre et al. described in Exp. Cell Res., 193, 236 (1991). That is, inhibition of the Na⁺/H⁺ exchanger activity was evaluated by the change in cell viability during acid loading, using the vascular smooth muscle cells isolated from the rat thoracic aorta.\nThe compounds of the present invention shown in Examples were evaluated by the minimum effective concentration (MEC) for the inhibition of the Na⁺/H⁺ exchanger activity."}, "[3]": {"system": "arrhythmia induced by reperfusion after rat coronary artery occlusion", "test": "Inhibition of ischemia- and reperfusion-induced arrhythmia in vivo", "protocol": "The experiment was performed by modifying the method of Crome et al. described in J. Cardiovasc. […] That is, the prevention of arrhythmia induced by reperfusion after rat coronary artery occlusion was evaluated by the incidence of ventricular tachycardia and ventricular fibrillation as well as the mortality."}, "[4]": {"settings": "vascular smooth muscle cells isolated from the rat thoracic aorta, change in intracellular pH during acid loading, read-out: IC₅₀"}},
  "note": "Structures can show the parent of a compound that is named as a salt. Where two headings read alike, the source gives them in different places.",
  "data": [
    {"smiles": "NC(N)=NC(=O)c1nc(Cl)c(N2CCCCCC2)nc1N", "note": "[5-Hexamethylene amiloride, reference compound]", "values": [
      {"measurement": "IC50", "setting": "Na⁺/H⁺ exchanger [1]; [4]", "value": 140, "unit": "nM"},
      {"measurement": "Inhibition of Na^+/H^+ Exchanger MEC", "setting": "Na⁺/H⁺ exchanger [2]", "value": 0.3, "unit": "µM"}
    ]},
    {"smiles": "CN(C)c1nc(N)c(C(=O)N=C(N)N)nc1Cl", "note": "[Dimethyl amiloride, reference compound]", "values": [
      {"measurement": "IC50", "setting": "Na⁺/H⁺ exchanger [1]", "value": 600, "unit": "nM"},
      {"measurement": "Inhibition of Na^+/H^+ Exchanger MEC", "setting": "Na⁺/H⁺ exchanger [2]", "value": 3.0, "unit": "µM"}
    ]},
    {"smiles": "CCN(c1nc(N)c(C(=O)NC(=N)N)nc1Cl)C(C)C", "note": "[EIPA, 5-N-ethyl-N-isopropyl amiloride, reference compound]", "values": [
      {"measurement": "Incidence of Ventricular Fibrillation", "setting": "[3]; dose 0.3 mg/kg", "value": 56, "unit": "%"},
      {"measurement": "Incidence of Ventricular Tachycardia", "setting": "[3]; dose 0.3 mg/kg", "value": 100, "unit": "%"},
      {"measurement": "Mortality", "setting": "[3]; dose 0.3 mg/kg", "value": 44, "unit": "%"},
      {"measurement": "Incidence of Ventricular Fibrillation", "setting": "[3]; dose 1 mg/kg", "value": 0, "unit": "%"},
      {"measurement": "Incidence of Ventricular Tachycardia", "setting": "[3]; dose 1 mg/kg", "value": 43, "unit": "%"},
      {"measurement": "Mortality", "setting": "[3]; dose 1 mg/kg", "value": 0, "unit": "%"}
    ]},
    {"smiles": "Cn1c(C(=O)N=C(N)N)cc2ccccc21", "note": "[Example 1, 1-methyl-2-indoloylguanidine hydrochloride]", "values": [
      {"measurement": "IC50", "setting": "Na⁺/H⁺ exchanger [1]; [4]", "value": 58, "unit": "nM"},
      {"measurement": "Incidence of Ventricular Fibrillation", "setting": "[3]; dose 0.1 mg/kg", "value": 10, "unit": "%"},
      {"measurement": "Incidence of Ventricular Tachycardia", "setting": "[3]; dose 0.1 mg/kg", "value": 70, "unit": "%"},
      {"measurement": "Mortality", "setting": "[3]; dose 0.1 mg/kg", "value": 10, "unit": "%"},
      {"measurement": "Incidence of Ventricular Fibrillation", "setting": "[3]; dose 0.3 mg/kg", "value": 0, "unit": "%"},
      {"measurement": "Incidence of Ventricular Tachycardia", "setting": "[3]; dose 0.3 mg/kg", "value": 50, "unit": "%"},
      {"measurement": "Mortality", "setting": "[3]; dose 0.3 mg/kg", "value": 0, "unit": "%"}
    ]},
    {"smiles": "Cn1c(C(=O)N=C(N)N)cc2cccc(Cl)c21", "note": "[Example 8, 7-Chloro-1-methyl-2-indoloylguanidine hydrochloride]", "values": [
      {"measurement": "IC50", "setting": "Na⁺/H⁺ exchanger [1]; [4]", "value": 50, "unit": "nM"}
    ]},
    {"smiles": "COc1cccc2c1cc(C(=O)N=C(N)N)n2C", "note": "[Example 22, 4-Methoxy-1-methyl-2-indoloylguanidine hydrochloride]", "values": [
      {"measurement": "IC50", "setting": "Na⁺/H⁺ exchanger [1]; [4]", "value": 2100, "unit": "nM"}
    ]},
    {"smiles": "Cn1c(C(=O)N=C(N)N)cc2c(C(F)(F)F)cccc21", "note": "[Example 29, 1-Methyl-4-trifluoromethyl-2-indoloylguanidine hydrochloride]", "values": [
      {"measurement": "IC50", "setting": "Na⁺/H⁺ exchanger [1]; [4]", "value": 0.9, "unit": "nM"}
    ]},
    {"smiles": "Cn1c(C(=O)NC(=N)N)cc2c(F)cccc21", "note": "[Example 55, 4-Fluoro-1-methyl-2-indoloylguanidine hydrochloride]", "values": [
      {"measurement": "IC50", "setting": "Na⁺/H⁺ exchanger [1]; [4]", "value": 20, "unit": "nM"}
    ]},
    {"smiles": "CC(C)Oc1cccc2c1cc(C(=O)NC(=N)N)n2C", "note": "[Example 58, 4-Isopropoxy-1-methy1-2-indoloylguanidine hydrochloride]", "values": [
      {"measurement": "Inhibition of Na^+/H^+ Exchanger MEC", "setting": "Na⁺/H⁺ exchanger [2]", "value": 0.3, "unit": "µM"}
    ]},
    {"smiles": "Cn1c(C(=O)N=C(N)N)cc2c(Cl)ccc(OCCCN)c21", "note": "[Example 118, 7-(3-Aminopropoxy)-4-chloro-1-methyl-2-indoloylguanidine hydrochloride]", "values": [
      {"measurement": "IC50", "setting": "Na⁺/H⁺ exchanger [1]; [4]", "value": 10, "unit": "nM"}
    ]}
  ]
}
